Laboratory results: patent US20090118316A1, “Methods for Augmenting Bone” (PFZER INC., priority 2004, published 2009)
Entries after “also recorded” stand apart in the source; their conditions may differ.

Assays:
[1] = system: ovariectomized (OVX) rat model; test: OVX rat model: pQCT analysis of distal femoral metaphysis; assay type: in vivo; details: OVX rats vs vehicle, PF—X 10 or 30 mg/kg/d, 28 days; for cortical bone content / total bone mineral content / total bone mineral density: EE 30 μg/kg/d
[2] = system: ovariectomized (OVX) rat model; test: OVX rat model: serum osteocalcin by RIA; assay type: in vivo; details: OVX rats, 2 weeks post-treatment, vs vehicle-treated OVX rats
[3] = OVX rat model: body weight; assay type: in vivo; details: OVX rats, oral gavage 28 days, vs vehicle-treated OVX; PF—X (di-hydrochloride salt) 10 or 30 mg/kg/d, EE 30 μg/kg/d
[4] = system: ovariectomized (OVX) rat model; test: OVX rat model: trabecular bone histomorphometry of proximal tibial metaphysis; assay type: in vivo; details: OVX rats vs vehicle, PF—X 30 mg/kg/d, 28 days; for bone formation rate/BV / bone formation rate/TV / mineral apposition rate / osteoclast number / osteoclast surface / percent mineralizing surface: EE 30 μg/kg/d
PYK2 = biological target: T1, PYK2 (Mus musculus, UniProt Q9QVP9); test: AIF-stimulated phosphorylation of PYK2 tyrosine 402 in MC3T3 cells (immunoprecipitation, SDS-PAGE); assay type: cell-based; details: Aluminum fluorate (AIF), 3 mM PF—Y (FIG. 7)
T1 construct: endogenous in cells; host or cells: murine MC3T3 cells
T1 sequence (Q9QVP9 whole entry): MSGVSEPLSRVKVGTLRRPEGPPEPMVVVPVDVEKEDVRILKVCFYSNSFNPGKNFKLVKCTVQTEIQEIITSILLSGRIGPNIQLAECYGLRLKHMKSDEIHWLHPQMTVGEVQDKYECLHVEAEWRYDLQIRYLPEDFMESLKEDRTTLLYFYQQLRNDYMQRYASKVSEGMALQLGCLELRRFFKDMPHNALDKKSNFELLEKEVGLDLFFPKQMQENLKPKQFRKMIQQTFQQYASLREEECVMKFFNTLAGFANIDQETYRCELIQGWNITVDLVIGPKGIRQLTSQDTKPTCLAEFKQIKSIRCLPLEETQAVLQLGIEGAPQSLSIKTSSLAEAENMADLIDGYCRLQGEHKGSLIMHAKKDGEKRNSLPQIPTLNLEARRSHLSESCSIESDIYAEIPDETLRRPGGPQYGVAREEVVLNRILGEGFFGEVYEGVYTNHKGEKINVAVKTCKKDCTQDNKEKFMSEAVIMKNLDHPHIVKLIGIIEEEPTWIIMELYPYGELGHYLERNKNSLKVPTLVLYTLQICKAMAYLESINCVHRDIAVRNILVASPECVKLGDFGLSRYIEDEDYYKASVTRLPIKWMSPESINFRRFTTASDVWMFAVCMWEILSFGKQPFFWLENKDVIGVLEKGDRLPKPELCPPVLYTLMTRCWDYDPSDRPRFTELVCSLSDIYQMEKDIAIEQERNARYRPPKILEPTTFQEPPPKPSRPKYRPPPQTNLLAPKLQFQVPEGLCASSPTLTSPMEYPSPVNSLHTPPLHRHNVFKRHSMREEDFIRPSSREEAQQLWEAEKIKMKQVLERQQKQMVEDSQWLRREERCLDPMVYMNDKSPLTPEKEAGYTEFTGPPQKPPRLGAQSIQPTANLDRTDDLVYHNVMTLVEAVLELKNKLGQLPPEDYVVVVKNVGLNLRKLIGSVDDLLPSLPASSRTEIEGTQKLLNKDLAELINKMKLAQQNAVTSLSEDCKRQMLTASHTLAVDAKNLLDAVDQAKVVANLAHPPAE
Protocol: Murine MC3T3 cells were treated with Aluminum fluorate (AIF) alone or in the presence of 3 mM PF—Y. Cells were lysed and the amount of total PYK2 and phosphorylated PYK2 (P-Y402) were determined by immunoprecipitation with antibodies that recognize total PYK2 or phosphorylated Tyr 402 PYK2 followed by SDS-PAGE.

[5] = system: human mesenchymal stem cells; test: Calcium deposition in human MSC; assay type: cell-based; details: human MSCs, compared to OS media alone; PF—Y especially the two lower doses (FIG. 5)
Protocol: (§1) Calcium Assay. Calcium deposited by the cells was measured using a diagnostic kit (Sigma #587A). Briefly, cells were rinsed twice with DPBS and hydrolyzed in 0.5 N HCl rotating overnight at 4°. Cells were then scraped and cellular debris was pelleted. Supernatants were used to measure calcium levels following manufacturer's protocol. The absorbance at 570 nm was determined and compared to calcium standards. Calcium levels were corrected for the DNA content in each well.
(§2) Human mesenchymal stem cells were cultured in DMEM-high glucose containing 10% FBS and 10 mM l-glutamine and plated in six well dishes at a density of 3×10^4 cells/well. The day after plating, these cultures were treated and analyzed as in Example 2.

[6] = system: human mesenchymal stem cells; test: Alkaline phosphatase activity in human MSC; assay type: cell-based; details: human MSCs, OS media; units per μg DNA (FIG. 4)
Protocol: (§3) Quantitative Alkaline Phosphatase Measurement. For quantitative alkaline phosphatase measurements, cells were washed twice with Dulbecco's phosphate buffered saline (DPBS) followed by incubation with substrate buffer (50 mM glycine, 1 mM magnesium chloride, pH 10.5) containing 1.3 mg/ml p-nitrophenol phosphate. The levels of alkaline phosphatase activity were determined by measuring the absorbance at 405 nm and compared to p-nitrophenol standards. The level of alkaline phosphatase activity was corrected for the amount of DNA in each sample.
as §2

murine MC3T3 cells = test: Alkaline phosphatase activity in MC3T3 cells; assay type: cell-based, mouse; details: OS media with increasing doses of PF—Y, units per plate or per μg DNA (FIG. 6)
Protocol: as §3
MC3T3 cells were cultured in alpha-MEM media containing 10% FBS and plated in six well dishes at a density of 5×10^4 cells/well. The day after plating, the media were removed and OS media with increasing doses of PF—Y were added. Media were refreshed every 3 days. The amount of alkaline phosphatase was measured as in Example 2 and 3.

[7] = system: murine mesenchymal stem cells; test: Calcium deposition in murine MSC; assay type: cell-based, mouse; details: murine MSCs, OS media, day 21, 1 μM dexamethasone or increasing doses of PF—Y; μg per culture or per μg DNA (FIG. 3)
Protocol: as §1
(§4) Murine mesenchymal stem cells isolated from femurs and tibiae of C57BI/6 mice were cultured in alpha-MEM containing 10% fetal bovine serum (FBS) and plated in six well dishes at a density of […]. The day after plating, the media were removed and replaced with media alone, in media with OS, or in OS media containing either 1 μM of dexamethasone or increasing doses of PF—Y for 21 days. “OS” medium” contains 50 μM ascorbic acid and 10 mM β-glycerophosphate. Media were refreshed every 3 days. The amount of alkaline phosphatase was measured on day 7 and day 21. The amounts of secreted calcium were determined only on day 21. The VonKossa stain was done after staining day 21 samples for alkaline phosphatase.

[8] = system: murine mesenchymal stem cells; test: Alkaline phosphatase activity in murine MSC; assay type: cell-based, mouse; details: murine MSCs, OS media, 1 μM dexamethasone or increasing doses of PF—Y; units per culture or per μg DNA (FIG. 2)
Protocol: as §3, §4

Compound | cortical bone content [1] | total bone mineral content [1] | total bone mineral density [1] | Serum osteocalcin [2] | body weight [3] | bone formation rate/BV [4] | bone formation rate/TV [4] | mineral apposition rate [4] | osteoclast number [4] | osteoclast surface [4] | percent mineralizing surface [4] | other results
CN(c1ccccc1CNc1nc(Nc2ccc3c(c2)CC(=O)N3)ncc1C(F)(F)F)S(C)(=O)=O [PF—X] | significant increases | significant increases | significant increases | significantly increased | No significant difference | significant increase | significant increase | significant increase | significant decrease | significant decrease | significant increase | total bone area [1]: significant increases; trabecular bone density [1]: significant increases; trabecular bone volume [4]: significant increase; trabecular thickness [4]: significant increase
C#C[C@]1(O)CC[C@H]2[C@@H]3CCc4cc(O)ccc4[C@H]3CC[C@@]21C [EE, 17[…]-ethynyl estradiol, reference compound] | higher | higher | higher | significantly decreased | prevented OVX-induced weight gain | decreases | decreases | decreases | decreases | decreases | decreases | –
Cc1cc(C)c(/C=C2\C(=O)Nc3ccc(O)cc32)[nH]1 [PF—Y] | – | – | – | – | – | – | – | – | – | – | – | AIF-induced phosphorylation of tyrosine 402 of PYK2 (PYK2): inhibited; also recorded: inhibition; calcium deposition [5]: increased; alkaline phosphatase activity [6]: elevated; alkaline phosphatase activity (murine MC3T3 cells): elevated; calcium deposition [7]: increased; alkaline phosphatase activity [8]: elevated
